Experimental data published in patent publication US20100022520A1, “MALONYL-COA ACETYLTRANSFERASE INHIBITORS AGAINST ANTIBIOTIC RESISTANT BACTERTIA” (University of Pittsburgh -- Of the Commonwealth System of …, priority 2008, published 2010).

Key:
[1] = test system: 32D cl 3 mouse hematopoietic progenitor cells; test: radioprotection, survival curves of irradiated 32D cl 3 cells; format: cell-based; conditions: for radioprotective effect on cells: 10 μM, compound added before or after radiation; for Do (Gy): compound at 10 μM, ionizing radiation survival curve
Description: To measure the level of radioprotection for compounds in Table 3, a DMSO solution is made for each compound and added to 32D cl 3 cells, a mouse hematopoietic progenitor cell line at a final concentration of 10 μM. The terms “radioprotection” and “radioprotective” refer to the protective effect on normal cells exerted by the captioned compounds when such cells are exposed to ionizing radiation.
FIGS. 2-4 show the survival curves for 32D cl 3 cells in the presence of different compounds of the invention. A strong radioprotective effect is seen in cultures that include the captioned compounds. FIGS. 2 and 3 show cell survival curves when the captioned compounds were added to cell cultures before exposure to radiation. The survival curves in FIG. 4, however, show the radioprotective effect of the inventive compounds when delivered to cell cultures after exposure to ionizing radiation. […] Moreover, the extent of radioprotection in a culture that is pretreated with an inventive compound is similar to that observed in a culture in which such compound is added after exposure to radiation.
The extent of radioprotection afforded by the captioned compounds is determined by measuring the fraction of viable cells in a culture containing the captioned radioprotective agent. The fraction of viable cells is determined by back-extrapolating the linear portion of the shoulder width in a survival curve to the Y-axis.

E. coli FabD = biological target: T1, E. coli FabD (Escherichia coli, UniProt P0AAI9); test: in vitro FabD (MCAT) enzyme inhibition assay, HPLC of CoA peak; format: biochemical; conditions: protocol of Molnos et al.
T1 construct: made in house; host or cells: E. coli
T1 sequence (P0AAI9 whole entry): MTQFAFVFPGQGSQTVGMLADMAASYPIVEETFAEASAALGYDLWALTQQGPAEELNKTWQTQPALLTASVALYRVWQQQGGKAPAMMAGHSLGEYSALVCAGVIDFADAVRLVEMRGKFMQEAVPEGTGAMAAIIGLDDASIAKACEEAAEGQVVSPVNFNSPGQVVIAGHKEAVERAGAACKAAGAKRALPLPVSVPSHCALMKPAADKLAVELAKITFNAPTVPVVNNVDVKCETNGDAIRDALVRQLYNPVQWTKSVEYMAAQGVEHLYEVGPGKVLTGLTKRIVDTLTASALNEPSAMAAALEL
Description: Compounds synthesized using MCR, as described above, were tested for their ability to inhibit FabD using an in vitro inhibition assay. Briefly, FabD and holo-ACP was cloned, and expressed in E. coli according to the protocol of Molnos et al., Anal. Biochem. 2003, 319, 171. The proteins were purified using the ACTA protein purification system. The inhibition study was carried out according to the protocol of Miossec et al., American Society for Microbiology 104th General Meeting, New Orleans, 2004 (LA. Abstract: K-001), and was performed in a final volume of 100 μl in 96-well microtiter plates (IEA/RIA black, flat bottom, half area plates, Costar).
Purified E. coli FabD was diluted in the enzyme dilution buffer (100 mM phosphate buffer pH 7, DTT 1.5 mM, BSA 1 mg/ml [30 ml of Assay buffer+30 mg of BSA]) at ten times the final concentration (0.75 ng/ml). Malonyl-CoA (10 mM, Sigma) was diluted to ten times the final concentration (25 uM) with distilled H2O. Holo-ACP was prepared to 874 μM. […] The reaction mixture was analyzed by anion exchange, high performance liquid chromatography, using a PL-SAX8u 4.6 mm×150 mm column (Polymer Laboratories) and UV-detection (CoA and malonyl-CoA are detected at 254 nm). The percent inhibition of FabD was calculated by integrating the area of the CoA peak in the chromatogram. […]

p53 = test: inhibition of p53
caspase = test: inhibition of caspase

SMILES | radioprotective effect on cells [1] | Do (Gy) [1] | ability to inhibit FabD (E. coli FabD) | inhibition of p53 (p53) | inhibition of caspase (caspase)
O=C(NCc1ccccc1)[C@@H]1CSC(=O)[C@H](Cc2ccccc2)N1 (single isomer, unassigned) [BEB 75-1] | potent radioprotective effect | 0.9 ± 0.1 Gy | – | – | –
Cc1cc(C)c(NC(=O)C(NC2CCSC2=O)C(C)C)c(C)c1 (stereo not shown) [Compound 15a, 3-Methyl-2-(2-oxo-tetrahydro-thiophen-3-ylamino)-N-(2,4,6-trimethyl-phenyl)-butyramide] | – | – | potent inhibitors | – | –
COC(=O)CNC(=O)C(NC1CCSC1=O)C1CC1 (racemic) [BEB 69] | – | – | – | p53 inhibitors | inhibit caspase
CC(C)=CCC[C@H](C)CC(NC1CCSC1=O)C(=O)NC(c1ccccc1)c1ccccc1 (stereo partly drawn) [Compound 13a, (S)-4,8-Dimethyl-2-(2-oxo-tetrahydro-thiophen-3-ylamino)-non-7-enoic acid benzhydryl-amide] | – | – | potent inhibitors | – | –
Clc1ccc(-c2ncn(CC3CC3)c2-c2c[nH]c3ccccc23)cc1 [BEB 55] | – | 1.1 ± 0.1 Gy | – | inhibitors of p53 | –
Clc1cccc(Cc2ncn(CC3CC3)c2-c2c[nH]c3ccccc23)c1 [BEB 59] | – | 1.1 ± 0.1 Gy | – | inhibitors of p53 | –
Cc1cn(CC(NC2CCSC2=O)C(=O)NC(C)(C)C)c(=O)[nH]c1=O (racemic) [SK7] | potent radioprotective effect | 1.1 ± 0.1 Gy | – | – | inhibit caspase
